Literature values, collected in US8952066B2, “Pharmaceutical/cosmetic, E.G., anti-acne compositions comprising at least one naphthoic acid compound, benzoyl peroxide and at least one film-forming agent” (Galderma Research & Development, priority 2007, dated 2015).
Where two headings read alike, the source gives them in different places. Values belong to the compound of their own block, whether it stands above or below them.

Columns and labels:
[1] = in presence of the benzoyl peroxide-based formulation
[2] = 40° C.

- Degradation of the retinoid (in words) ([1]; for 24 hours): no degradation
SMILES: COc1ccc(-c2ccc3cc(C(=O)O)ccc3c2)cc1C12CC3CC(CC(C3)C1)C2 [adapalene, 6-[3-(1-adamantyl)-4-methoxyphenyl]-2-naphthoic acid]

SMILES: O=C(OOC(=O)c1ccccc1)c1ccccc1 [benzoyl peroxide]
- Degradation time ([2]; in PEG 400 (0.5 mg/g)): 1.4 days
- Degradation time ([2]; in ethanol): 29 days
- Degradation time ([2]; in propylene glycol): 53 days

- Degradation of the retinoid ([1]; in 2 hours): 50%
- Degradation of the retinoid ([1]; in 24 hours): 95%
SMILES: CC1=C(/C=C/C(C)=C/C=C/C(C)=C/C(=O)O)C(C)(C)CCC1 [tretinoin]
